US7288552B2, “Piperidine derivatives, process for preparation thereof, and pharmaceutical composition for alzheimer's disease containing the same” (STC NARA Co., Ltd., priority 2001, dated 2007)

Key:
β-amyloid (1-42) = molecular target: T1, β-amyloid (1-42) (Homo sapiens, UniProt P05067); experiment: Inhibition of β-amyloid (1-42) aggregation (thioflavin T fluorescence); assay type: biochemical; details: 5 μM β-amyloid 1-42, 37° C., 26 hours
T1 construct: β-amyloid (1-42) was a product of American Peptide Co., U.S.A; purchased American Peptide Co., U.S.A
Text: Experiment for Measuring Inhibition of β-amyloid Aggregation
As the materials used for measuring β-amyloid aggregation, β-amyloid (1-42) was a product of American Peptide Co., U.S.A.; and thioflavin T, phosphate buffered saline tablets, and dimethyl sulfoxide (DMSO, 99.5%) were products of Sigma Chemical Co., U.S.A., and high purity reagents were selected for other reagents.
3. Experiment for Measuring Inhibition of β-amyloid (1-42) Aggregation
Fluorescent analysis was used in measuring β-amyloid aggregation. This peptide compound was kept in the deep freezer (−80° C.), and the final concentration used in the mesurement was 5 μM. Compounds that need to be analyzed were dissolved in 99.5% DMSO, and fluorescent substance was prepared by dissolving thioflavin T (5 μM) in 0.01 M sodium phosphate buffer.
The procedure for aggregation reaction was as follows. To 0.01 M sodium phosphate buffer (92.5 μl) was added fixed concentration of a compound, for measuring purpose, (5 μl) and 5 μM β-amyloid 1-42 (2.5 μl). The resulting mixture was kept at 37° C. for 26 hours to aggregate. 5 μM tioflavin T (2000 μl) was added thereto, and then fluorescent strength was measured with fluorescent spectrometer.

[1] = molecular target: T2, acetylcholinesterase (Type V-S: from electric eel) (Electrophorus electricus, UniProt O42275); experiment: Measurement of acetylcholinesterase activity (modified Ellman's method); assay type: biochemical; details: 0.03 U enzyme, 37° C., 412 nm; read-out: AChE Inhibition (IC50)
T2 construct: purchased Sigma Chemical Co., U.S.A. Type V-S
Text: Experiment for Measuring Acetylcholinesterase Inhibition Effect
The compounds used for measuring acetylcholinesterase (AChE) activity such as acetylcholinesterase (Type V-S: from electric eel), acetylcholine iodide, 5,5-dithio-bis(2-nitro benzoic acid), and neostigmine bromide, were products of Sigma Chemical Co., U.S.A., and high purity reagents were selected for other reagents.
3. Measurement of Acetylcholinesterase Activity
Modified Ellman's method for measuring enzyme activity was used to meet with the measurement of acetylcholinesterase activity. The enzyme was separated into certain amount, and kept under 80° C. below zero. The final concentration of the enzyme used in the experiment was 0.03 unit concentration. 1000 μM of […] dissolved in 0.1 M sodium phosphate buffer (pH 8.0) was used for substrate. As for dye reagent, 5,5-dithio-bis-(2-nitrobenzoic acid) (39.6 mg) and sodium bicarbonate(15 mg) dissolved in 10 mL sodium phosphate buffer (0.1M, pH 7.0) was used.
The procedure for the enzyme reaction was as follows. After adding 200 μl DTNB and 100 μl enzyme (0.03 U) to 2 mL sodium phosphate buffer (pH 8.0), the resulting mixture was pre-heated at 37° C. for 10 minutes. To the resulting mixture 200 μl substrate was added, and allowed to react for 3 minutes. The spectrometer of finished reaction was measured at 412 nm wave. IC50 value connected to activity inhibition was measured by quantal-dose response.

ICR mice = experiment: Acute toxicity test on animals; assay type: in vivo; details: 50 mg/kg to 500 mg/kg intraperitoneal, single injection, observed for 10 days
Description: In order for a compound to be comprised in the pharmaceutical composition for treating Alzheimer's disease, it must be nontoxic. […] This test followed the protocol of Korea Food & Drug Administration. […] The compounds used for the test were diluted with wheat germ oil.

[2] = system: patients with Alzheimer's disease; details: cited from earlier work

T1 sequence (P05067 672-713 limits assumed): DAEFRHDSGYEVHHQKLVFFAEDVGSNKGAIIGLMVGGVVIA
T2 sequence (O42275 24-633): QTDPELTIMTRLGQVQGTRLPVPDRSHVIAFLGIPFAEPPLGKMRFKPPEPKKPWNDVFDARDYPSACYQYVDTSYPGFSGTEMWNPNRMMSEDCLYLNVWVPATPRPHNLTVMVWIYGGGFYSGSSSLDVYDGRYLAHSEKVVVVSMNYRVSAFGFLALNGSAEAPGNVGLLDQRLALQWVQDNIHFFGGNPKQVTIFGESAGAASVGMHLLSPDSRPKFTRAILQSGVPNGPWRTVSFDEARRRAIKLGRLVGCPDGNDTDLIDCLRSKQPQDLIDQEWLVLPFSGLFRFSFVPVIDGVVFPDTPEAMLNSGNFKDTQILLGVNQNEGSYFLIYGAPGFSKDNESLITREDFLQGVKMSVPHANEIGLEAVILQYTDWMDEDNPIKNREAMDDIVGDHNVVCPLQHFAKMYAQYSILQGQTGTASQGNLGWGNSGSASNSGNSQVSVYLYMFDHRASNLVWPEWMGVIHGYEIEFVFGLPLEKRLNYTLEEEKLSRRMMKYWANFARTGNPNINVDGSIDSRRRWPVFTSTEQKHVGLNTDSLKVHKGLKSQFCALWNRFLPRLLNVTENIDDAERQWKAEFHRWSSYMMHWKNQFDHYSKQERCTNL

| Compound | IC50 (β-amyloid (1-42)) | IC50 [1] | death rate (ICR mice) | share of patients with Alzheimer's disease in whom efficacious [2] |
| --- | --- | --- | --- | --- |
| O=C(OCCCCN1CCC(OC(c2ccccc2)c2ccccc2)CC1)c1ccc([N+](=O)[O-])cc1 [Example 1, 4-[4-(benzhydryloxy)piperidino]butyl-4-nitrobenzoate] | 53.1 µM | 7.2 µM | – | – |
| O=C(OCCCCN1CCC(OC(c2ccccc2)c2ccccc2)CC1)c1ccc(Cl)cc1 [Example 2, 4-[4-(benzhydryloxy)piperidino]butyl-4-chlorobenzoate] | 28.2 µM | 0.3 µM | no death | – |
| O=C(OCCCCN1CCC(OC(c2ccccc2)c2ccccc2)CC1)c1ccc(F)cc1 [Example 3, 4-[4-(benzhydryloxy)piperidino]butyl 4-fluorobenzoate] | 36.3 µM | 0.84 µM | – | – |
| O=C(OCCCCN1CCC(OC(c2ccccc2)c2ccccc2)CC1)c1ccccc1 [Example 4, 4-[4-(benzhydryloxy)piperidino]butyl benzoate] | 40.3 µM | 1.3 µM | – | – |
| CC(C)(C)c1ccc(C(=O)OCCCCN2CCC(OC(c3ccccc3)c3ccccc3)CC2)cc1 [Example 6, 4-[4-(benzhydryloxy)piperidino]butyl 4-(tert-butyl)benzoate] | – | – | no death | – |
| O=C(OCCCCN1CCC(OC(c2ccccc2)c2ccccc2)CC1)c1cccc(F)c1 [Example 8, 4-[4-(benzhydryloxy)piperidino]butyl 3-fluorobenzoate] | 33.7 µM | 70.7 µM | – | – |
| O=C(Nc1ccc(F)cc1)OCCCCN1CCC(OC(c2ccccc2)c2ccccc2)CC1 [Example 10, 4-[4-(benzhydryloxy)piperidino]butyl N-(4-fluorophenyl)carbamate] | 114 µM | 2.45 µM | – | – |
| O=C(OCCCCN1CCC(OC(c2ccccc2)c2ccccc2)CC1)c1cccnc1 [Example 11, 4-[4-(benzhydryloxy)piperidino]butyl nitcotinate] | 61.2 µM | > 150 µM | – | – |
| O=C(OCCCCN1CCC(OCc2ccccc2)CC1)c1ccc([N+](=O)[O-])cc1 [Example 12, 4-[4-(benzyloxy)piperidino]butyl 4-nitrobenzoate] | – | > 100 µM | – | – |
| O=C(OCCCCN1CCC(OCc2ccccc2)CC1)c1ccc(Cl)cc1 [Example 13, 4-[4-(benzyloxy)piperidino]butyl 4-chlorobenzoate] | – | > 100 µM | – | – |
| O=C(OCCCCN1CCC(OCc2ccccc2)CC1)c1ccc(F)cc1 [Example 14, 4-[4-(benzyloxy)piperidino]butyl 4-fluorobenzoate] | – | > 100 µM | – | – |
| O=C(OCCCCN1CCC(OCc2ccccc2)CC1)c1ccccc1 [Example 15, 4-[4-(benzyloxy)piperidino]butyl benzoate] | – | > 100 µM | – | – |
| CC(C)c1ccc(C(=O)OCCCCN2CCC(OCc3ccccc3)CC2)cc1 [Example 16, 4-[4-(benzyloxy)piperidino]butyl 4-isopropylbenzoate] | – | 14.8 µM | – | – |
| CC(C)(C)c1ccc(C(=O)OCCCCN2CCC(OCc3ccccc3)CC2)cc1 [Example 17, 4-[4-(benzyloxy)piperidino]butyl 4-(tert-butyl)benzoate] | – | 12.2 µM | – | – |
| O=C(OCCCCN1CCC(OCc2ccccc2)CC1)c1cccc(Cl)c1 [Example 18, 4-[4-(benzyloxy)piperidino]butyl 3-chlorobenzoate] | – | > 100 µM | – | – |
| O=C(OCCCCN1CCC(OCc2ccccc2)CC1)c1cccc(F)c1 [Example 19, 4-[4-(benzyloxy)piperidino]butyl 3-fluorobenzoate] | – | > 100 µM | – | – |
| Nc1c2c(nc3ccccc13)CCCC2 [Tarcrine] | – | – | – | about 25% |
